Where “and” joins values, the source holds several entries; their conditions need not be identical. Identical values can stand only once. Toxic doses and inconclusive results are not listed. How the source made its calls: active means survival T/C of 150% or more; inactive means T/C below 125% in these data.
Tested on: B6C3F1 mice, intracerebral ependymoblastoma, median survival T/C
Test: NCI In Vivo Anticancer Drug Screen. Data for tumor model Ependymoblastoma (intracerebral) in B6C3F1 mice
Details: endpoint: median survival time, higher = longer survival
Description: The antitumor activity of compounds was measured in mice bearing transplantable tumors. Survival or tumor size were measured and the results are expressed as the measurement made in the treated group (T) divided by the measurement made in the vehicle treated control group (C). The tumor model used in this assay is Ependymoblastoma (intracerebral) in B6C3F1 mice

[1] = dose: 100.0 mg/kg/injection, schedule: Q01DX005 (ip), vehicle: Klucel (hydroxypropylcellulose) (HPC)

Measured: T/C

c1cc2n(n1)CCN2
inactive: dose: 32.0 mg/kg/injection, schedule: Q01DX005 (ip), vehicle: water 93 % of control and 88 % of control | dose: 32.0 mg/kg/injection, schedule: Q#A X006 (ip), vehicle: water 100 % of control | dose: 64.0 mg/kg/injection, schedule: Q01DX001 (ip), vehicle: water 93 % of control and 94 % of control | dose: 64.0 mg/kg/injection, schedule: Q01DX001 (oral), vehicle: water 100 % of control and 106 % of control | dose: 64.0 mg/kg/injection, schedule: Q01DX005 (ip), vehicle: water 102 % of control and 104 % of control | dose: 64.0 mg/kg/injection, schedule: Q01DX005 (oral), vehicle: water 98 % of control | dose: 64.0 mg/kg/injection, schedule: Q#A X002 (ip), vehicle: water 98 % of control | dose: 64.0 mg/kg/injection, schedule: Q#A X004 (ip), vehicle: water 94 % of control | dose: 64.0 mg/kg/injection, schedule: Q#A X006 (ip), vehicle: water 102 % of control | dose: 128.0 mg/kg/injection, schedule: Q01DX001 (ip), vehicle: water 92 % of control and 93 % of control | dose: 128.0 mg/kg/injection, schedule: Q01DX001 (oral), vehicle: water 103 % of control and 108 % of control | dose: 128.0 mg/kg/injection, schedule: Q01DX005 (ip), vehicle: water 91 % of control and 113 % of control | dose: 128.0 mg/kg/injection, schedule: Q01DX005 (oral), vehicle: water 104 % of control | dose: 128.0 mg/kg/injection, schedule: Q#A X002 (ip), vehicle: water 100 % of control | dose: 128.0 mg/kg/injection, schedule: Q#A X004 (ip), vehicle: water 109 % of control | dose: 128.0 mg/kg/injection, schedule: Q#A X006 (ip), vehicle: water 102 % of control | dose: 256.0 mg/kg/injection, schedule: Q01DX001 (ip), vehicle: water 92 % of control and 100 % of control | dose: 256.0 mg/kg/injection, schedule: Q01DX001 (oral), vehicle: water 98 % of control and 100 % of control | dose: 256.0 mg/kg/injection, schedule: Q01DX005 (ip), vehicle: water 106 % of control | dose: 256.0 mg/kg/injection, schedule: Q01DX005 (oral), vehicle: water 116 % of control | dose: 256.0 mg/kg/injection, schedule: Q#A X002 (ip), vehicle: water 98 % of control | dose: 256.0 mg/kg/injection, schedule: Q#A X006 (ip), vehicle: water 115 % of control | dose: 512.0 mg/kg/injection, schedule: Q01DX001 (ip), vehicle: water 106 % of control and 122 % of control | dose: 512.0 mg/kg/injection, schedule: Q01DX001 (oral), vehicle: water 103 % of control and 121 % of control | dose: 1024.0 mg/kg/injection, schedule: Q01DX001 (ip), vehicle: water 109 % of control

O=C(NP(=O)(N1CC1)N1CC1)c1cc(I)ccc1I
inactive: dose: 8.0 mg/kg/injection, schedule: Q01DX005 (ip), vehicle: saline 104 % of control and 109 % of control | dose: 16.0 mg/kg/injection, schedule: Q01DX005 (ip), vehicle: saline 106 % of control and 124 % of control | dose: 16.0 mg/kg/injection, schedule: Q#A X004 (ip), vehicle: suspension in saline 101 % of control | dose: 16.0 mg/kg/injection, schedule: Q#A X006 (ip), vehicle: suspension in saline 113 % of control | dose: 32.0 mg/kg/injection, schedule: Q01DX001 (ip), vehicle: suspension in saline 101 % of control | dose: 32.0 mg/kg/injection, schedule: Q01DX005 (ip), vehicle: saline 112 % of control | dose: 32.0 mg/kg/injection, schedule: Q#A X004 (ip), vehicle: suspension in saline 117 % of control | dose: 32.0 mg/kg/injection, schedule: Q#A X006 (ip), vehicle: suspension in saline 117 % of control | dose: 64.0 mg/kg/injection, schedule: Q01DX001 (ip), vehicle: suspension in saline 117 % of control | dose: 64.0 mg/kg/injection, schedule: Q01DX001 (oral), vehicle: suspension in saline 103 % of control | dose: 64.0 mg/kg/injection, schedule: Q#A X004 (ip), vehicle: suspension in saline 117 % of control | dose: 64.0 mg/kg/injection, schedule: Q#A X006 (ip), vehicle: suspension in saline 122 % of control | dose: 128.0 mg/kg/injection, schedule: Q01DX001 (ip), vehicle: suspension in saline 103 % of control | dose: 128.0 mg/kg/injection, schedule: Q01DX001 (oral), vehicle: suspension in saline 106 % of control | dose: 128.0 mg/kg/injection, schedule: Q01DX005 (ip), vehicle: saline 116 % of control | dose: 128.0 mg/kg/injection, schedule: Q#A X004 (ip), vehicle: suspension in saline 111 % of control | dose: 256.0 mg/kg/injection, schedule: Q01DX001 (oral), vehicle: suspension in saline 113 % of control | dose: 512.0 mg/kg/injection, schedule: Q01DX001 (ip), vehicle: suspension in saline 112 % of control

NCCOCC(N)C(=O)O (centres undefined)
inactive: dose: 62.5 mg/kg/injection, schedule: Q01DX005 (ip), vehicle: saline 93 % of control | dose: 125.0 mg/kg/injection, schedule: Q01DX005 (ip), vehicle: saline 95 % of control | dose: 250.0 mg/kg/injection, schedule: Q01DX005 (ip), vehicle: saline 98 % of control | dose: 500.0 mg/kg/injection, schedule: Q01DX005 (ip), vehicle: saline 103 % of control

CCOC(OCC)C(=O)OCC(=O)[C@]1(O)Cc2c(O)c3c(c(O)c2[C@@H](OC2CC(N)C(O)C(C)O2)C1)C(=O)c1c(OC)cccc1C3=O (some centres undefined)
inactive: dose: 0.12 mg/kg/injection, schedule: Q01DX005 (ip), vehicle: water 103 % of control | dose: 0.25 mg/kg/injection, schedule: Q01DX005 (ip), vehicle: water 102 % of control and 113 % of control | dose: 0.5 mg/kg/injection, schedule: Q01DX005 (ip), vehicle: water 101 % of control and 105 % of control | dose: 1.0 mg/kg/injection, schedule: Q01DX005 (ip), vehicle: water 98 % of control and 109 % of control | dose: 2.0 mg/kg/injection, schedule: Q01DX005 (ip), vehicle: water 101 % of control and 103 % of control | dose: 4.0 mg/kg/injection, schedule: Q01DX005 (ip), vehicle: water 109 % of control

CN1CC[C@]23c4c5ccc(O)c4O[C@H]2C(=O)CC[C@H]3[C@H]1C5
inactive: dose: 6.25 mg/kg/injection, schedule: Q01DX005 (iv), vehicle: saline 113 % of control | dose: 12.5 mg/kg/injection, schedule: Q01DX005 (iv), vehicle: saline 114 % of control | dose: 25.0 mg/kg/injection, schedule: Q01DX005 (iv), vehicle: saline 122 % of control

CC(=O)NNC(=O)c1ccccn1
inactive: [1] 101 % of control and 110 % of control | dose: 200.0 mg/kg/injection, schedule: Q01DX005 (ip), vehicle: Klucel (hydroxypropylcellulose) (HPC) 92 % of control and 90 % of control | dose: 400.0 mg/kg/injection, schedule: Q01DX005 (ip), vehicle: Klucel (hydroxypropylcellulose) (HPC) 95 % of control and 103 % of control

O=P1(NCCCl)OCCCN1CCCl (centres undefined)
inactive: dose: 25.0 mg/kg/injection, schedule: Q01DX001 (ip), vehicle: water 101 % of control | dose: 40.0 mg/kg/injection, schedule: Q01DX001 (ip), vehicle: saline 102 % of control | dose: 50.0 mg/kg/injection, schedule: Q01DX001 (ip), vehicle: water 104 % of control and 105 % of control | dose: 80.0 mg/kg/injection, schedule: Q01DX001 (ip), vehicle: saline 101 % of control | dose: 100.0 mg/kg/injection, schedule: Q01DX001 (ip), vehicle: water 101 % of control and 113 % of control | dose: 160.0 mg/kg/injection, schedule: Q01DX001 (ip), vehicle: saline 102 % of control | dose: 200.0 mg/kg/injection, schedule: Q01DX001 (ip), vehicle: water 114 % of control and 124 % of control | dose: 320.0 mg/kg/injection, schedule: Q01DX001 (ip), vehicle: saline 105 % of control | dose: 400.0 mg/kg/injection, schedule: Q01DX001 (ip), vehicle: water 119 % of control | dose: 640.0 mg/kg/injection, schedule: Q01DX001 (ip), vehicle: saline 118 % of control

CC1CN1C(=O)NCCCCCCNC(=O)N1CC1C (centres undefined)
inactive: dose: 1.25 mg/kg/injection, schedule: Q01DX005 (ip), vehicle: Klucel (hydroxypropylcellulose) (HPC) 105 % of control | dose: 2.5 mg/kg/injection, schedule: Q01DX005 (ip), vehicle: Klucel (hydroxypropylcellulose) (HPC) 108 % of control | dose: 5.0 mg/kg/injection, schedule: Q01DX005 (ip), vehicle: Klucel (hydroxypropylcellulose) (HPC) 120 % of control | dose: 10.0 mg/kg/injection, schedule: Q01DX005 (ip), vehicle: Klucel (hydroxypropylcellulose) (HPC) 109 % of control

COC1C(CO)OC(n2cnc3c(=S)nc(N)[nH]c32)C1O (centres undefined)
inactive: dose: 12.5 mg/kg/injection, schedule: Q01DX005 (ip), vehicle: Klucel (hydroxypropylcellulose) (HPC) 104 % of control | dose: 25.0 mg/kg/injection, schedule: Q01DX005 (ip), vehicle: Klucel (hydroxypropylcellulose) (HPC) 109 % of control | dose: 50.0 mg/kg/injection, schedule: Q01DX005 (ip), vehicle: Klucel (hydroxypropylcellulose) (HPC) 119 % of control | [1] 106 % of control

O=C1C(NCC(O)CO)=C(N2CC2)C(=O)C(NCC(O)CO)=C1N1CC1 (centres undefined)
inactive: dose: 0.5 mg/kg/injection, schedule: Q01DX005 (ip), vehicle: saline 117 % of control | dose: 1.0 mg/kg/injection, schedule: Q01DX005 (ip), vehicle: saline 116 % of control
